How the values were obtained:
[1] = molecular target: T1, GLS1 (purified recombinant human GAC) (Homo sapiens, UniProt O94925); experiment: GLS1 enzymatic activity assay (dual-coupled, Amplex UltraRed/resorufin); assay type: biochemical
T1 sequence (O94925 55-598 isoform O94925-3 limits assumed): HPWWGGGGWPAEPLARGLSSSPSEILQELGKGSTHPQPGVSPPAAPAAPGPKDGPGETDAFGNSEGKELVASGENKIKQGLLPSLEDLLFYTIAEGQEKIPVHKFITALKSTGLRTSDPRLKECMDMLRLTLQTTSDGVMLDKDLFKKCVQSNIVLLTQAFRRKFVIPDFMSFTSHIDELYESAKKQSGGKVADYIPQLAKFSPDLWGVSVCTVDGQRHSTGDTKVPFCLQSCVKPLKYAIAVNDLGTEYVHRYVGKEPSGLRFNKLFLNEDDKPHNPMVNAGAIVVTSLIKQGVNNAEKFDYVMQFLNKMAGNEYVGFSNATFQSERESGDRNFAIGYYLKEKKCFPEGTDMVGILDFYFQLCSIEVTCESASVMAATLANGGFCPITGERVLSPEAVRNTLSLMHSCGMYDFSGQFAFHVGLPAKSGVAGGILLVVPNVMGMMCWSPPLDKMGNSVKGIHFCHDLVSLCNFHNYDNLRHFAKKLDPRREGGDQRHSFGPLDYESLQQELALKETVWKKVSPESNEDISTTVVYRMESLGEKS
How it was run: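 In this coupled fluorometric format, phosphate-activated GAC (2 nM, 50 mM phosphate) is pre-exposed to compound for 10 min before 1 mM glutamine addition. Product is tracked as resorufin (530/590 nm) over time or at 20 min, and potency is derived by logistic fitting.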

A549 cells = experiment: A549 proliferation (viability) assay, Cell Titer Fluor, 72 hours; assay type: cell-based; conditions: Homo sapiens
How it was run: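 A549 cells seeded at 1000 cells/well, left 24 h, then exposed to compound for 72 h at 37 °C, 5% CO2, final DMSO 0.5% (v/v). Viability read by Cell Titer Fluor fluorescence; EC50 from four-parameter logistic fit.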

Row | Compound | IC50 [1] | EC50 (A549 cells)
1 | O=C(Cc1cccc(OC(F)(F)F)c1)Nc1ccc(CCCCn2ccc(NC(=O)Cc3ccccc3)nc2=O)nn1 [Example 75, N-{2-oxo-1-[4-(6-{2-[3-(trifluoro-methoxy)phenyl]acetamido}pyridazin-3-yl)butyl]-1,2-dihydropyrimidin-4-yl}-2-phenylacetamide] | < 100 nM | < 100 nM
2 | CC(=O)Nc1ccn(CCCCc2ccc(NC(=O)Cc3cccc(OC(F)(F)F)c3)nn2)c(=O)n1 [Example 76, N-{6-[4-(4-acetamido-2-oxo-1,2-dihydropyrimidin-1-yl)butyl]pyridazin-3-yl}-2-[3-(trifluoromethoxy)phenyl]acetamide] | < 100 nM | 100 to 500 nM
3 | Nc1ccn(CCCCc2ccc(NC(=O)Cc3cccc(OC(F)(F)F)c3)nn2)c(=O)n1 [Example 77, N-{6-[4-(4-amino-2-oxo-1,2-dihydropyrimidin-1-yl)butyl]pyridazin-3-yl}-2-[3-(trifluoromethoxy)phenyl]acetamide] | 500 to 5000 nM | > 5000 nM
4 | O=C(Cc1cccc(OC(F)(F)F)c1)Nc1ccc(CCCCn2ccc(NC(=O)[C@@H](O)c3ccccc3)nc2=O)nn1 [Example 78, (2S)-2-hydroxy-N-{2-oxo-1-[4-(6-{2-[3-(trifluoro-methoxy)phenyl]acetamido}pyridazin-3-yl)butyl]-1,2-dihydropyrimidin-4-yl}-2-phenylacetamide] | < 100 nM | < 100 nM
5 | Nc1nnc(CCCCn2ccc(NC(=O)Cc3cccc(OC(F)(F)F)c3)nc2=O)s1 [Example 79, N-{1-[4-(5-amino-1,3,4-thiadiazol-2-yl)butyl]-2-oxo-1,2-dihydropyrimidin-4-yl}-2-[3-(trifluoromethoxy)phenyl]acetamide] | 500 to 5000 nM | 500 to 5000 nM
6 | O=C(Cc1cccc(OC(F)(F)F)c1)Nc1ccn(CCCCc2nnc(NC(=O)[C@@H](O)c3ccccc3)s2)c(=O)n1 [Example 80, (2S)-2-hydroxy-N-{5-[4-(2-oxo-4-{2-[3-(trifluoro-methoxy)phenyl]acetamido}-1,2-dihydropyrimidin-1-yl)butyl]-1,3,4-thiadiazol-2-yl}-2-phenylacetamide] | < 100 nM | 100 to 500 nM
7 | O=C(Cc1cccc(OC(F)(F)F)c1)Nc1ccn(CCCCc2nnc(NC(=O)Cc3cccnc3)s2)c(=O)n1 [Example 81, N-[2-oxo-1-(4-{5-[2-(pyridin-3-yl)acetamido]-1,3,4-thiadiazol-2-yl]butyl)-1,2-dihydropyrimidin-4-yl]-2-[3-(trifluoromethoxy)phenyl]acetamide] | < 100 nM | 500 to 5000 nM
8 | O=C(Cc1cccnc1)Nc1ccn(CCCCc2nnc(NC(=O)Cc3ccccc3)s2)c(=O)n1 [Example 82, N-[5-(4-{2-oxo-4-[2-(pyridin-3-yl)acetamido]-1,2-dihydropyrimidin-1-yl}butyl)-1,3,4-thiadiazol-2-yl]-2-phenylacetamide] | < 100 nM | > 5000 nM
9 | O=C(Cc1ccccc1)Nc1nnc(CCCCn2ccc(NC(=O)[C@@H](O)c3ccccc3)nc2=O)s1 [Example 83, (2S)-2-hydroxy-N-(2-oxo-1-{4-[5-(2-phenylacetamido)-1,3,4-thiadiazol-2-yl]butyl}-1,2-dihydropyrimidin-4-yl)-2-phenylacetamide] | < 100 nM | > 5000 nM
10 | O=C(Cc1ccccc1)Nc1nnc(CCCCn2ccc(NC(=O)[C@H](O)c3ccccc3)nc2=O)s1 [Example 84, (2R)-2-hydroxy-N-(2-oxo-1-{4-[5-(2-phenylacetamido)-1,3,4-thiadiazol-2-yl]butyl}-1,2-dihydropyrimidin-4-yl)-2-phenylacetamide] | < 100 nM | > 5000 nM
11 | CC(C)(C)OC(=O)NCc1cccc(CC(=O)Nc2ccn(CCCCc3nnc(NC(=O)Cc4ccccc4)s3)c(=O)n2)c1 [Example 85, tert-butyl N-[(3-{[(2-oxo-1-{4-[5-(2-phenylacetamido)-1,3,4-thiadiazol-2-yl]butyl}-1,2-dihydropyrimidin-4-yl)carbamoyl]methyl}phenyl)methyl] carbamate] | < 100 nM | 100 to 500 nM
12 | CCNC(=O)Nc1ccn(CCCCc2ccc(NC(=O)Cc3ccccc3)nn2)c(=O)n1 [Example 86, N-[6-(4-{4-[(ethylcarbamoyl)amino]-2-oxo-1,2-dihydropyrimidin-1-yl}butyl)pyridazin-3-yl]-2-phenylacetamide] | 500 to 5000 nM | > 5000 nM
13 | CC(C)NC(=O)Nc1ccn(CCCCc2ccc(NC(=O)Cc3ccccc3)nn2)c(=O)n1 [Example 87, N-{6-[4-(2-oxo-4-{[(propan-2-yl)carbamoyl]amino}-1,2-dihydropyrimidin-1-yl)butyl]pyridazin-3-yl}-2-phenylacetamide] | 500 to 5000 nM | > 5000 nM
14 | O=C(Cc1ccccc1)Nc1ccc(CCCCn2ccc(NC(=O)NC3CCCCC3)nc2=O)nn1 [Example 88, N-[6-(4-{4-[(cyclohexylcarbamoyl)amino]-2-oxo-1,2-dihydropyrimidin-1-yl}butyl)pyridazin-3-yl]-2-phenylacetamide] | 100 to 500 nM | 500 to 5000 nM
15 | C[C@@H](NC(=O)Nc1ccn(CCCCc2ccc(NC(=O)Cc3ccccc3)nn2)c(=O)n1)c1ccccc1 [Example 89, N-(6-{4-[2-oxo-4-({[(1R)-1-phenylethyl]carbamoyl}amino)-1,2-dihydropyrimidin-1-yl]butyl}pyridazin-3-yl)-2-phenylacetamide] | 100 to 500 nM | > 5000 nM
16 | C[C@H](NC(=O)Nc1ccn(CCCCc2ccc(NC(=O)Cc3ccccc3)nn2)c(=O)n1)c1ccccc1 [Example 90, N-(6-{4-[2-oxo-4-({[(1S)-1-phenylethyl]carbamoyl}amino)-1,2-dihydropyrimidin-1-yl]butyl}pyridazin-3-yl)-2-phenylacetamide] | 100 to 500 nM | > 5000 nM
17 | O=C(Cc1cccc(OC(F)(F)F)c1)Nc1ccn(CCCCn2ccc(NC(=O)Cc3cccc(OC(F)(F)F)c3)nc2=O)c(=O)n1 [Example 91, N-{2-oxo-1-[4-(2-oxo-4-{2-[3-(trifluoromethoxy)phenyl]acetamido}-1,2-dihydropyrimidin-1-yl)butyl]-1,2-dihydropyrimidin-4-yl}-2-[3-(trifluoromethoxy)phenyl]acetamide] | < 100 nM | 100 to 500 nM
18 | CC(=O)Nc1ccn(CCCCc2ccc(NC(=O)Cc3ccccc3)nn2)c(=O)n1 [Example 92, N-{6-[4-(4-acetamido-2-oxo-1,2-dihydropyrimidin-1-yl)butyl]pyridazin-3-yl}-2-phenylacetamide] | < 100 nM | 500 to 5000 nM
19 | COC(=O)Nc1ccn(CCCCc2ccc(NC(=O)Cc3ccccc3)nn2)c(=O)n1 [Example 93, methyl N-(2-oxo-1-{4-[6-(2-phenylacetamido)pyridazin-3-yl]butyl}-1,2-dihydropyrimidin-4-yl)carbamate] | 100 to 500 nM | 500 to 5000 nM
20 | CC(C)OC(=O)Nc1ccn(CCCCc2ccc(NC(=O)Cc3ccccc3)nn2)c(=O)n1 [Example 94, propan-2-yl N-(2-oxo-1-{4-[6-(2-phenylacetamido)pyridazin-3-yl]butyl}-1,2-dihydropyrimidin-4-yl)carbamate] | < 100 nM | 100 to 500 nM
21 | O=C(Cc1ccccc1)Nc1ccc(CCCCn2ccc(NC(=O)OC3CCCCC3)nc2=O)nn1 [Example 95, cyclohexyl N-(2-oxo-1-{4-[6-(2-phenylacetamido)pyridazin-3-yl]butyl}-1,2-dihydropyrimidin-4-yl)carbamate] | < 100 nM | < 100 nM
22 | O=C(Cc1ccccc1)Nc1ccc(CCCCn2ccc(NC(=O)OCc3ccccc3)nc2=O)nn1 [Example 96, benzyl N-(2-oxo-1-{4-[6-(2-phenylacetamido)pyridazin-3-yl]butyl}-1,2-dihydropyrimidin-4-yl)carbamate] | < 100 nM | 100 to 500 nM
23 | O=C(Cc1ccccc1)Nc1ccc(CCCCn2ccc(NC(=O)Oc3ccccc3)nc2=O)nn1 [Example 97, phenyl N-(2-oxo-1-{4-[6-(2-phenylacetamido)pyridazin-3-yl]butyl}-1,2-dihydropyrimidin-4-yl)carbamate] | 100 to 500 nM | > 5000 nM
24 | CC(C)COC(=O)Nc1ccn(CCCCc2ccc(NC(=O)Cc3ccccc3)nn2)c(=O)n1 [Example 98, 2-methylpropyl N-(2-oxo-1-{4-[6-(2-phenylacetamido)pyridazin-3-yl]butyl}-1,2-dihydropyrimidin-4-yl)carbamate] | < 100 nM | 100 to 500 nM
25 | O=C(Cc1ccccc1)Nc1ccc(CCCCn2ccc(NC(=O)Cc3cccc(OC(F)(F)F)c3)nc2=O)nn1 [Example 99, N-{6-[4-(2-oxo-4-{2-[3-(trifluoromethoxy)phenyl]acetamido}-1,2-dihydropyrimidin-1-yl)butyl]pyridazin-3-yl}-2-phenylacetamide] | < 100 nM | < 100 nM
26 | O=C(Cc1ccccc1)Nc1ccc(CCCCn2ccc(NC(=O)[C@H](O)c3ccccc3)nc2=O)nn1 [Example 100, (2R)-2-hydroxy-N-(2-oxo-1-{4-[6-(2-phenylacetamido)pyridazin-3-yl]butyl}-1,2-dihydropyrimidin-4-yl)-2-phenylacetamide] | < 100 nM | 500 to 5000 nM

From patent US20160002204A1 (Board of Regents, The University of Texas System, priority 2014, published 2016)
